Results from patent US20030021772A1 (priority 2001, published 2003).

Assays:
[1] = system: effects of jet lag and sleep deprivation on human beings; assay: ANAM Running Memory Test (vigilance, working memory) after overnight flight; assay type: in vivo; conditions: sublingual NADH 20 mg
Experimental: (§1) The efficacy of a stabilized, sublingual form of reduced nicotinamide adenine dinucleotide (NADH, available commercially under the name ENADA® from Menuco Corp.) as a treatment for the effects of jet lag and sleep deprivation on human beings was examined. Healthy individuals were treated with NADH on the day following an overnight flight across North America, and the effects of NADH on their cognitive functioning were monitored. Although the sublingual form of NADH was used in these examples, any of the aforementioned forms of NADH could have been employed.
(§2) The subjects in these examples were volunteers between 35 and 55 years of age, and were in good general physical health. […] In addition, subjects were required to have a normal day/night sleep schedule in their home time zone, and to have an Epworth Sleepiness Scale rating >8 at baseline (“baseline” being the testing in San Diego on the day of the flight) (see E. Hoddes et al., Quantification of Sleepiness: A New Approach, Psychophysiology (1973), 10(4):431-6). […]
(§3) Subjects arrived at the San Diego, Calif. test site at 1200 hours on the day of the flight. […] Subjects were transported to the San Diego Airport and flown to Phoenix, Ariz. where they were shuttled to a conference room at a nearby hotel, provided dinner, and readministered the battery of tests at approximately 2030 hours. […]

[2] = system: effects of jet lag and sleep deprivation on human beings; assay: Kay Continuous Performance Test (KCPT), sustained attention and vigilance; assay type: in vivo; conditions: sublingual NADH 20 mg
Experimental: as §1
The subjects in these examples were volunteers between 35 and 55 years of age, and were in good general physical health. At a screening visit, subjects were urine tested to screen for the use of illicit drugs and pregnancy. […] In addition, subjects were required to have a normal day/night sleep schedule in their home time zone, and to have an Epworth Sleepiness Scale rating >8 at baseline (“baseline” being the testing in San Diego on the day of the flight) (see E. Hoddes et al., Quantification of Sleepiness: A New Approach, Psychophysiology (1973), 10(4):431-6). […]
as §3
(§4) Sublingual NADH 20 mg (4 tablets of sublingual ENADAlert™ 5 mg) or an equal number of identical placebo tablets were administered by study site personnel to the subjects upon their arrival at the Washington test site. At the test site, subjects' activities were carefully monitored to avoid dehydration, exposure to daylight (subjects were kept indoors) and hunger (they were provided breakfast and lunch, which all subjects ate). […]

[3] = system: effects of jet lag and sleep deprivation on human beings; assay: CogScreen Shifting Attention Test: Instruction Condition (working memory); assay type: in vivo; conditions: sublingual NADH 20 mg
Experimental: as §1, §2, §3

[4] = system: effects of jet lag and sleep deprivation on human beings; assay: ANAM Math Test (working memory, math reasoning); assay type: in vivo; conditions: sublingual NADH 20 mg
Experimental: as §1, §2, §3

[5] = system: effects of jet lag and sleep deprivation on human beings; assay: CCAB Mark Numbers Test (divided attention); assay type: in vivo; conditions: sublingual NADH 20 mg
Experimental: as §1, §2, §3

[6] = system: effects of jet lag and sleep deprivation on human beings; assay: CogScreen Visual Sequence Comparison Test (visual perceptual speed and accuracy); assay type: in vivo; conditions: sublingual NADH 20 mg; PM test vs baseline; placebo 1.4; P=0.026
Experimental: as §1, §2, §3

[7] = system: effects of jet lag and sleep deprivation on human beings; assay: CogScreen Matching to Sample Test; assay type: in vivo; conditions: sublingual NADH 20 mg; baseline to PM; placebo 1.0; P=0.078
Experimental: as §1, §2, §3

[8] = system: effects of jet lag and sleep deprivation on human beings; assay: CogScreen Dual Task Test: Tracking Alone (psychomotor functioning); assay type: in vivo; conditions: sublingual NADH 20 mg, 31% at baseline
Experimental: as §1, §2, §3

[9] = system: effects of jet lag and sleep deprivation on human beings; assay: Stanford Sleepiness Scale self-report; assay type: in vivo; conditions: sublingual NADH 20 mg
Experimental: as §1
The subjects in these examples were volunteers between 35 and 55 years of age, and were in good general physical health. At a screening visit, subjects were urine tested to screen for the use of illicit drugs and pregnancy. Cognitive screening with the Trail Making Test and Symbol Digit Modalities Test (see M. D. Lezak, Neuropsychological Assessment, 3rd ed., Oxford University Press (1995)) was used to exclude subjects with cognitive function test scores>1 SD below the mean for their age. Subjects were required to be gainfully employed, to have completed 14 years of formal education, and to have none of the following conditions: history of substance abuse, obesity (body mass index>30 kg/m^2), air sickness, pregnancy, nicotine use (within 6-months), mental health disorder (within 1 year), or sleep disorder. In addition, subjects were required to have a normal day/night sleep schedule in their home time zone, and to have an Epworth Sleepiness Scale rating >8 at baseline (“baseline” being the testing in San Diego on the day of the flight) (see E. Hoddes et al., Quantification of Sleepiness: A New Approach, Psychophysiology (1973), 10(4):431-6). Subjects were not permitted to be taking antidepressant medications, CNS stimulants, neuroleptics, Ginseng, Gingko Biloba, melatonin, phosphatylcholine, -acetyl carnatene, or other medications/nutritional supplements reported to enhance cognitive functioning within 90 days of the study. During the study, subjects were not permitted to use caffeine, alcohol or to take any prescription or over-the-counter medications known to enhance or depress CNS functioning.
Subjects arrived at the San Diego, Calif. test site at 1200 hours on the day of the flight. The study protocol was reviewed with the subjects and they were then each issued a laptop computer (IBM Thinkpad Model 760) and familiarized with the tests and measures to be used in the study. At approximately 1500 hours subjects were administered the entire battery of tests to establish their baseline performance (“baseline”). Subjects also received training in the method for taking the sublingual tablets. Subjects were transported to the San Diego Airport and flown to Phoenix, Ariz. where they were shuttled to a conference room at a nearby hotel, provided dinner, and readministered the battery of tests at approximately 2030 hours. Subjects were shuttled back to the airport and boarded a flight to Baltimore, Md. at 2230 hours. Thirty minutes into the flight the subjects were instructed to complete a subset of the battery of tests. Subjects were permitted to sleep after completing the tests. The duration of the flight from Phoenix to Baltimore is approximately 4 hours. Furthermore, there is a 3-hour time difference between San Diego and Baltimore. The local time in Baltimore upon arrival was approximately 0600 hours. After breakfast, subjects were shuttled to the Washington, D.C. test site where they arrived at approximately 0800 hours.
as §4

[10] = system: effects of jet lag and sleep deprivation on human beings; assay: Walter Reed Mood Scale self-report; assay type: in vivo; conditions: sublingual NADH 20 mg
Experimental: as §1, §2, §3

human beings = assay: Adverse effects (headaches) during the jet lag study; assay type: in vivo; conditions: sublingual NADH 20 mg
Experimental: as §1, §2, §3

Stability at acidic pH = assay type: physicochemical; conditions: pHs below 7, as in the human stomach
Description: Therefore, when used in oral form, these substances must be coated with an acid-stable protective film so that they can survive the stomach environment for subsequent absorption by the intestine. Suitable acid-stable coatings are known in the art and can be applied by a conventional coating process after the active ingredients are formed into a tablet or capsule. Examples of suitable coatings are: cellulose acetate phthalate; polyvinylacetate phthalate; hydroxyl-propyl-methyl cellulose phthalate; methacryllic acid copolymers; fat-wax; shellac; zein; aqua-coating; and surerelease. Another possibility for the coating is a solution of a phthalate and a lack dry substance in isopropanol. An example of a suitable lack dry substance is sold under the name […]™ by Rohm Pharma. Alternatively, a protein coating in an aqueous medium may be applied. However, a sugar-coating should not be used because it will destabilize NADH.

NC(=O)C1=CN([C@@H]2O[C@H](COP(=O)(O)OP(=O)(O)OC[C@H]3O[C@@H](n4cnc5c(N)ncnc54)[C@H](O)[C@@H]3O)[C@@H](O)[C@H]2O)C=CC1 [NADH, reduced nicotinamide adenine dinucleotide]
mean accuracy on the Running Memory Test ([1]; afternoon (PM) test, placebo 91%): 96% | Running Memory accuracy ([1]; stable across all three sessions (baseline, AM, PM), 14 subjects, Group x Session P=0.036, placebo dropped 95% to 91%): approximately 96% | subjects with normal baseline performance who made two or more errors on KCPT ([2]; AM test, 90 min after dosing, placebo 44%): 36% | subjects who had resumed a normal level of KCPT performance ([2]; PM test, placebo 63%, P<0.08): 86% | subjects with omission errors on the KCPT ([2]; afternoon, placebo 37%): 14% | more problems correctly completed per minute vs. baseline (Shifting Attention Test throughput) ([3]; AM test vs baseline, placebo 6.8, Group x Session P<0.05): 13.2 problems per minute | Shifting Attention Test: Instruction Condition accuracy ([3]; AM test, 92.5% at baseline, placebo 93% to 91%): 95% | ANAM Math Test throughput improvement relative to baseline ([4]; AM test, placebo 6%, Group x Session P<0.07): 15% | ANAM Math Test throughput improvement relative to baseline ([4]; PM test, placebo 4%): 11% | increase of Mark Numbers Test Total Score ([5]; PM test, placebo 19.2 points, P=0.011): 77.5 points | decrease of secondary task reaction time, Mark Numbers Test ([5]; baseline to AM, placebo increased by 0.44 seconds, P=0.016): 0.15 s | more items correctly completed per minute vs baseline (Visual Sequence Comparison throughput) [6]: 5.4 items per minute | more correct responses per minute (Matching to Sample throughput) [7]: 4.9 correct responses per minute | subjects with tracking failures ([8]; AM test, placebo 41%): 33% | subjects with tracking failures ([8]; PM test, placebo 29%, P<0.09): 11% | subjects reporting an increase in sleepiness compared to baseline ([9]; AM test session, placebo 62.5%): 57.1% | subjects with Stanford Sleepiness Scale rating of 1 or 2 ([9]; AM test, 82% at baseline, placebo identical): 35% | subjects with Stanford Sleepiness Scale rating of 3 or more ([9]; AM test, placebo identical): 65% | subjects no longer reporting an increase in sleepiness relative to baseline ([9]; PM test session, placebo 25%): 57.7% | number of subjects with Stanford Sleepiness Scale rating of 1 or 2 ([9]; PM test, 17 subjects, placebo four, p=0.07): eight | number of subjects with Stanford Sleepiness Scale rating of 3 or more ([9]; PM test, 17 subjects, placebo thirteen): nine | subjects reporting no sleepiness ([9]; afternoon test, with 11 additional subjects (n=46), placebo 18%, P<0.02): 48% | self-reported fatigue and activity level, difference between NADH and placebo groups [10]: no significant differences | adverse effects attributable to treatment (human beings): no adverse effects | stability at pHs below 7 (Stability at acidic pH): very unstable
